# Where two headings read alike, the source gives them in different places.
# What was measured:
# Immune (THP-1) cells = assay: in vitro; type: cell-based, Human; conditions: 48 h
# Experimental: (§1) A549 cells were plated in DMEM+10% FBS at a density of 10,000 cells/well in 96-well culture plates and incubated at 37° C. for 24 h. THP-1 cells were plated in RPMI+10% FBS at a density of 10,000 cells/well in 96-well culture plates and incubated at 37° C. for 24 h. Cells were sera-starved for 24 h. […] Untreated cells were used as control. Cells treated with dexamethasone and hydroxychloroquine were included as positive control. After treatment, cells were incubated in a 5% CO2 incubator for 48 h.
# Lung (A549) cells = assay: in vitro; type: cell-based, Human; conditions: 48 h
# Experimental: as §1
# Bladder cells (T24) = assay: tissue or blood; type: cell-based; conditions: Spike S1 Protein (5 μg/ml)
# liver cells (HepG2) = assay: cells; type: cell-based; conditions: Spike S1 Protein (20 μg/ml)
# Kidney cells (HEK-293) = assay: cells; type: cell-based; conditions: Spike S1 Protein (100 ng/ml); for inhibition at 0.1 µM / inhibition at 1 µM / inhibition at 10 µM / inhibition at 20 µM: Homo sapiens, HEK293
# [1] = test system: Endothelial cells (EA.hy926); assay: cells; type: cell-based; conditions: Spike S1 Protein (1 μg/ml); for inhibition at 0.1 µM / inhibition at 1 µM / inhibition at 10 µM / inhibition at 20 µM: Homo sapiens, EA.hy 926
# Bone cells (MG-63) = assay: cells; type: cell-based; conditions: Spike S1 Protein (10 μg/ml); for inhibition at 0.1 µM / inhibition at 1 µM / inhibition at 10 µM / inhibition at 20 µM: Homo sapiens, MG-63
# Colon cells (HT-29) = assay: cells; type: cell-based; conditions: Spike S1 Protein (1 μg/ml); for inhibition at 0.1 µM / inhibition at 1 µM / inhibition at 10 µM / inhibition at 20 µM: Homo sapiens, HT-29
# [2] = test system: pancreatic cells (PANC-1); assay: cells; type: cell-based; conditions: Spike S1 Protein (20 μg/ml)+
# Cardiac cells (H9C2) = assay: cells; type: cell-based; conditions: Spike S1 Protein (5 μg/ml); for inhibition at 0.1 µM / inhibition at 1 µM / inhibition at 10 µM / inhibition at 20 µM: Rattus norvegicus, H9c2
# [3] = 0.1 μM, read-out: % Inhibition (IL-6)
# [4] = 0.1 μM, read-out: % Inhibition (IL-8)
# [5] = 1 μM, read-out: % Inhibition (IL-6)
# [6] = 1 μM, read-out: % Inhibition (IL-8)
# [7] = 10 μM, read-out: % Inhibition (IL-6)
# [8] = 10 μM, read-out: % Inhibition (IL-8)
# [9] = 20 μM, read-out: % Inhibition (IL-6)
# [10] = 20 μM, read-out: % Inhibition (IL-8)
# [11] = 0.1 μM, read-out: % Inhibition (wrt Control), IL-6
# [12] = 0.1 μM, read-out: % Inhibition (wrt Control), IL-8
# [13] = 1 μM, read-out: % Inhibition (wrt Control), IL-6
# [14] = 1 μM, read-out: % Inhibition (wrt Control), IL-8
# [15] = 10 μM, read-out: % Inhibition (wrt Control), IL-6
# [16] = 10 μM, read-out: % Inhibition (wrt Control), IL-8
# [17] = 20 μM, read-out: % Inhibition (wrt Control), IL-6
# [18] = 20 μM, read-out: % Inhibition (wrt Control), IL-8
structure (smiles),measurement,setting,value
C[C@@H]1C[C@H]2[C@@H]3CCC4=CC(=O)C=C[C@]4(C)[C@@]3(F)[C@@H](O)C[C@]2(C)[C@@]1(O)C(=O)CO [Dexamethasone],% Viability,Immune (THP-1) cells; 0.1 μM,110.0%
same,% Viability,Immune (THP-1) cells; 1 μM,98.2%
same,% Viability,Immune (THP-1) cells; 5 μM,83.1%
same,% Viability,Immune (THP-1) cells; 10 μM,95.6%
same,% Viability,Immune (THP-1) cells; 20 μM,104.3%
same,% Viability,Lung (A549) cells; 0.1 μM,122.7%
same,% Viability,Lung (A549) cells; 1 μM,76.3%
same,% Viability,Lung (A549) cells; 5 μM,90.0%
same,% Viability,Lung (A549) cells; 10 μM,82.6%
same,% Viability,Lung (A549) cells; 20 μM,69.5%
same,Con. of IL-8,Bladder cells (T24); 0.1 μM,2458.5
same,Conc. of IL-6,Bladder cells (T24); 0.1 μM,292.2
same,inhibition at 0.1 µM,Bladder cells (T24); [3],49.4%
same,inhibition at 0.1 µM,Bladder cells (T24); [4],42.5%
same,Con. of IL-8,Bladder cells (T24); 1 μM,2008.8
same,Conc. of IL-6,Bladder cells (T24); 1 μM,348.5
same,inhibition at 1 µM,Bladder cells (T24); [5],39.7%
same,inhibition at 1 µM,Bladder cells (T24); [6],53%
same,Con. of IL-8,Bladder cells (T24); 10 μM,2198.1
same,Conc. of IL-6,Bladder cells (T24); 10 μM,369.4
same,inhibition at 10 µM,Bladder cells (T24); [7],36%
same,inhibition at 10 µM,Bladder cells (T24); [8],48.6%
same,Con. of IL-8,Bladder cells (T24); 20 μM,2386.4
same,Conc. of IL-6,Bladder cells (T24); 20 μM,365.4
same,inhibition at 20 µM,Bladder cells (T24); [9],36.7%
same,inhibition at 20 µM,Bladder cells (T24); [10],44.2%
same,Conc. of IL-8,liver cells (HepG2); 0.1 μM,91.4 pg/mL
same,Conc. of IL-8,liver cells (HepG2); 1 μM,21.5 pg/mL
same,Conc. of IL-8,liver cells (HepG2); 10 μM,64.4 pg/mL
same,Conc. of IL-8,liver cells (HepG2); 20 μM,23.9 pg/mL
same,inhibition at 0.1 µM,"liver cells (HepG2); Homo sapiens, HepG2, 0.1 μM, read-out: % Inhibition (wrt Control ), IL-8",81.7%
same,inhibition at 1 µM,"liver cells (HepG2); Homo sapiens, HepG2, 1 μM, read-out: % Inhibition (wrt Control ), IL-8",95.7%
same,inhibition at 10 µM,"liver cells (HepG2); Homo sapiens, HepG2, 10 μM, read-out: % Inhibition (wrt Control ), IL-8",87.1%
same,inhibition at 20 µM,"liver cells (HepG2); Homo sapiens, HepG2, 20 μM, read-out: % Inhibition (wrt Control ), IL-8",95.2%
same,Con. of IL-8,Kidney cells (HEK-293); 0.1 μM,447.3 pg/mL
same,Conc. of IL-6,Kidney cells (HEK-293); 0.1 μM,64.5 pg/mL
same,Con. of IL-8,Kidney cells (HEK-293); 1 μM,453.6 pg/mL
same,Conc. of IL-6,Kidney cells (HEK-293); 1 μM,65.6 pg/mL
same,Con. of IL-8,Kidney cells (HEK-293); 10 μM,551.8 pg/mL
same,Conc. of IL-6,Kidney cells (HEK-293); 10 μM,79.6 pg/mL
same,Con. of IL-8,Kidney cells (HEK-293); 20 μM,292.7 pg/mL
same,Conc. of IL-6,Kidney cells (HEK-293); 20 μM,42.6 pg/mL
same,inhibition at 0.1 µM,Kidney cells (HEK-293); [11],75.2%
same,inhibition at 0.1 µM,Kidney cells (HEK-293); [12],76.6%
same,inhibition at 1 µM,Kidney cells (HEK-293); [13],74.8%
same,inhibition at 1 µM,Kidney cells (HEK-293); [14],76.3%
same,inhibition at 10 µM,Kidney cells (HEK-293); [15],69.4%
same,inhibition at 10 µM,Kidney cells (HEK-293); [16],71.2%
same,inhibition at 20 µM,Kidney cells (HEK-293); [17],83.6%
same,inhibition at 20 µM,Kidney cells (HEK-293); [18],84.7%
same,Con. of IL-8,[1]; 0.1 μM,1208.6 pg/mL
same,Con. of IL-8,[1]; 1 μM,1250.3 pg/mL
same,Conc. of IL-6,[1]; 1 μM,42.9 pg/mL
same,Con. of IL-8,[1]; 10 μM,1633.7 pg/mL
same,Conc. of IL-6,[1]; 10 μM,53.9 pg/mL
same,Con. of IL-8,[1]; 20 μM,1766.1 pg/mL
same,Conc. of IL-6,[1]; 20 μM,72.9 pg/mL
same,inhibition at 0.1 µM,"[1]; 0.1 μM, read-out: % Inhibition (wrt, IL-6)",85.7%
same,inhibition at 0.1 µM,"[1]; 0.1 μM, read-out: % Inhibition (wrt, IL-8)",25.2%
same,inhibition at 1 µM,"[1]; 1 μM, read-out: % Inhibition (wrt, IL-6)",87.3%
same,inhibition at 1 µM,"[1]; 1 μM, read-out: % Inhibition (wrt, IL-8)",22.6%
same,inhibition at 10 µM,"[1]; 10 μM, read-out: % Inhibition (wrt, IL-6)",84%
same,inhibition at 10 µM,"[1]; 10 μM, read-out: % Inhibition (wrt, IL-8)",0%
same,inhibition at 20 µM,"[1]; 20 μM, read-out: % Inhibition (wrt, IL-6)",78.4%
same,inhibition at 20 µM,"[1]; 20 μM, read-out: % Inhibition (wrt, IL-8)",0%
same,Con. of IL-8,Bone cells (MG-63); 0.1 μM,407.8 pg/mL
same,Conc. of IL-6,Bone cells (MG-63); 0.1 μM,49.3 pg/mL
same,Con. of IL-8,Bone cells (MG-63); 1 μM,355.6 pg/mL
same,Conc. of IL-6,Bone cells (MG-63); 1 μM,50.9 pg/mL
same,Con. of IL-8,Bone cells (MG-63); 10 μM,400.6 pg/mL
same,Conc. of IL-6,Bone cells (MG-63); 10 μM,46.2 pg/mL
same,Con. of IL-8,Bone cells (MG-63); 20 μM,427.8 pg/mL
same,Conc. of IL-6,Bone cells (MG-63); 20 μM,52.0 pg/mL
same,inhibition at 0.1 µM,Bone cells (MG-63); [11],69.2%
same,inhibition at 0.1 µM,Bone cells (MG-63); [12],42.4%
same,inhibition at 1 µM,Bone cells (MG-63); [13],68.2%
same,inhibition at 1 µM,Bone cells (MG-63); [14],49.8%
same,inhibition at 10 µM,Bone cells (MG-63); [15],71.1%
same,inhibition at 10 µM,Bone cells (MG-63); [16],43.4%
same,inhibition at 20 µM,Bone cells (MG-63); [17],67.5%
same,inhibition at 20 µM,Bone cells (MG-63); [18],39.6%
same,Con. of IL-8,Colon cells (HT-29); 0.1 μM,44.1 pg/mL
same,Conc. of IL-6,Colon cells (HT-29); 0.1 μM,106.0 pg/mL
same,Con. of IL-8,Colon cells (HT-29); 1 μM,18.2 pg/mL
same,Conc. of IL-6,Colon cells (HT-29); 1 μM,89.1 pg/mL
same,Con. of IL-8,Colon cells (HT-29); 10 μM,53.5 pg/mL
same,Conc. of IL-6,Colon cells (HT-29); 10 μM,73.6 pg/mL
same,Con. of IL-8,Colon cells (HT-29); 20 μM,66.4 pg/mL
same,Conc. of IL-6,Colon cells (HT-29); 20 μM,109.0 pg/mL
same,inhibition at 0.1 µM,Colon cells (HT-29); [11],55%
same,inhibition at 0.1 µM,Colon cells (HT-29); [12],93.4%
same,inhibition at 1 µM,Colon cells (HT-29); [13],62.2%
same,inhibition at 1 µM,Colon cells (HT-29); [14],97.3%
same,inhibition at 10 µM,Colon cells (HT-29); [15],68.8%
same,inhibition at 10 µM,Colon cells (HT-29); [16],92%
same,inhibition at 20 µM,Colon cells (HT-29); [17],53.8%
same,inhibition at 20 µM,Colon cells (HT-29); [18],90.1%
same,Conc. of IL-8,[2]; 0.1 μM,330.5 pg/mL
same,Conc. of IL-8,[2]; 1 μM,296.2 pg/mL
same,Conc. of IL-8,[2]; 10 μM,342.8 pg/mL
same,Conc. of IL-8,[2]; 20 μM,255.7 pg/mL
same,inhibition at 0.1 µM,"[2]; Homo sapiens, PANC-1, 0.1 μM, read-out: % Inhibition (wrt Control ), IL-8",55.7%
same,inhibition at 1 µM,"[2]; Homo sapiens, PANC-1, 1 μM, read-out: % Inhibition (wrt Control ), IL-8",60.3%
same,inhibition at 10 µM,"[2]; Homo sapiens, PANC-1, 10 μM, read-out: % Inhibition (wrt Control ), IL-8",54.1%
same,inhibition at 20 µM,"[2]; Homo sapiens, PANC-1, 20 μM, read-out: % Inhibition (wrt Control ), IL-8",65.7%
same,Con. of IL-8,Cardiac cells (H9C2); 0.1 μM,31.2
same,Conc. of IL-6,Cardiac cells (H9C2); 0.1 μM,50.8
same,Con. of IL-8,Cardiac cells (H9C2); 1 μM,18.6
same,Conc. of IL-6,Cardiac cells (H9C2); 1 μM,44.5
same,Con. of IL-8,Cardiac cells (H9C2); 10 μM,29.1
same,Conc. of IL-6,Cardiac cells (H9C2); 10 μM,53.3
same,Con. of IL-8,Cardiac cells (H9C2); 20 μM,48.7
same,Conc. of IL-6,Cardiac cells (H9C2); 20 μM,51.8
same,inhibition at 0.1 µM,Cardiac cells (H9C2); [3],90%
same,inhibition at 0.1 µM,Cardiac cells (H9C2); [4],97.8%
same,inhibition at 1 µM,Cardiac cells (H9C2); [5],91.2%
same,inhibition at 1 µM,Cardiac cells (H9C2); [6],98.7%
same,inhibition at 10 µM,Cardiac cells (H9C2); [7],89.5%
same,inhibition at 10 µM,Cardiac cells (H9C2); [8],98%
same,inhibition at 20 µM,Cardiac cells (H9C2); [9],89.7%
same,inhibition at 20 µM,Cardiac cells (H9C2); [10],96.6%

# — US20250041380A1, “R[…] FOR SARS-COV2 DISEASE” (priority 2021, published 2025)
